{"source": "patent US20040248869A1", "about": "“Method for finding novel active ingredients having androgen-type properties” (priority 2001, published 2004)", "key": {"male adult fibroblasts": {"system": "male adult fibroblasts", "conditions": "male adult fibroblasts (cultures 2-6); increase based on the blank value; average of the two measuring conditions", "procedure": "The process may be carried out, for example, as follows: cell suspensions of human fibroblasts (embryonal cells of adult male origin) are mixed with 1 to 2 mg/ml of a collagen suspension. […] After incubation for 7 days at 27° C./5% by volume carbon dioxide in a steam-saturated atmosphere, biopsies are taken and histological sections prepared. The quantity of macromolecules formed can be determined by two different methods:\n1. a general determination by coloring the glucosaminoglucans (GAGs) with PAS Alcian Blue (standard coloration) and\n2. a specific immunohistochemical characterization of certain elements of the matrix by treatment with antibodies, more especially anti-chondroitin sulfate, anti-keratan sulfate, anti-heparan sulfate, anti-dermatan sulfate, anti-elastin and anti-collagen (type III).\nThe fibroblasts are examined with a photon microscope in regard to the coloration (PAS Alcian) and with a confocal laser microscope in regard to the immunohistology. In order to determine the quantity of dermal macromolecules formed, micrographs are taken and the zones around the fibroblasts (“perifibroblastic zones”) are analyzed. Counting is done by image analysis, i.e. by determining the perifibroblastic zones and the gray level. Both parameters are directly proportional to the synthesis of dermal macromolecules. The results are evaluated in relation to the corresponding results without addition of the active components.\nThe numbers represent the increase in %-rel., based on the blank value, i.e. the absence of the male sex hormones, and expressed as the average of the two measuring conditions."}, "genital fibroblasts": {"system": "genital fibroblasts", "conditions": "Loire et al., Sultan et al.; cited from earlier work"}, "epidermis": {"system": "epidermis", "conditions": "topical application, axillae of relatively old males; Kligman et al.; cited from earlier work"}, "embryonal fibroblasts": {"system": "embryonal fibroblasts", "experiment": "Synthesis of dermal macromolecules in fibroblast cultures in collagen gel (embryonal fibroblasts)", "format": "cell-based, human", "conditions": "increase based on the blank value (absence of hormone), average of the two measuring conditions"}, "human skin cells": {"system": "human skin cells", "conditions": "differentiation of human skin cells; cited from earlier work"}}, "data": [{"smiles": "C[C@]12CCC(=O)C[C@@H]1CC[C@@H]1[C@@H]2CC[C@]2(C)[C@@H](O)CC[C@@H]12", "note": "[DHT, dihydrotestosterone]", "values": [{"measurement": "Increase in the synthesis of macromolecules: Elastin", "setting": "male adult fibroblasts", "value": "+552 %-rel."}, {"measurement": "Increase in the synthesis of macromolecules: Heparan sulfate", "setting": "male adult fibroblasts", "value": "+486 %-rel."}, {"measurement": "DNA or protein distribution in the target cell", "setting": "genital fibroblasts", "value": "does not affect"}]}, {"smiles": "CCC(=O)O[C@H]1CC[C@H]2[C@@H]3CCC4=CC(=O)CC[C@]4(C)[C@H]3CC[C@]12C", "note": "[testosterone propionate]", "values": [{"measurement": "strength of the epidermis", "setting": "epidermis", "value": "increases the strength of the epidermis"}]}, {"smiles": "C[C@]12CC[C@H]3[C@@H](CCC4=CC(=O)CC[C@@]43C)[C@@H]1CC[C@@H]2O", "note": "[T (soluble), testosterone]", "values": [{"measurement": "Increase in the synthesis of macromolecules: Chondroitin sulfate", "setting": "embryonal fibroblasts", "value": "+23 %-rel."}, {"measurement": "Increase in the synthesis of macromolecules: Collagen", "setting": "embryonal fibroblasts", "value": "+17 %-rel."}, {"measurement": "Increase in the synthesis of macromolecules: Elastin", "setting": "embryonal fibroblasts", "value": "+11 %-rel."}]}, {"smiles": "C[C@]12CC[C@H]3[C@@H](CCC4=CC(=O)CC[C@@]43C)[C@@H]1CC[C@@H]2O", "note": "[T, testosterone]", "values": [{"measurement": "Increase in the synthesis of macromolecules: Chondroitin sulfate", "setting": "male adult fibroblasts", "value": "+537 %-rel."}, {"measurement": "Increase in the synthesis of macromolecules: Elastin", "setting": "male adult fibroblasts", "value": "+2753 %-rel."}, {"measurement": "Increase in the synthesis of macromolecules: Keratan sulfate", "setting": "male adult fibroblasts", "value": "+83 %-rel."}, {"measurement": "reduction of granular cells, keratohyalin granules and keratinosomes", "setting": "human skin cells", "value": "does counteract the reduction"}]}]}
